Data on 71 compounds can be found in PubChem BioAssay AID179 (DTP/NCI, 2004).

This assay concerns CEM cells HIV-1 protection, formazan growth assay. The assay is described as follows: NCI AIDS Antiviral Assay. As to conditions: for IC50: measured here: growth of uninfected CEM cells. The gist of the method: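 Steps: treat uninfected and HIV-1-infected human CEM cells at five drug levels; quantify growth by soluble formazan; retest any compound reaching 50% protection; classify actives from the retest.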

Each structure is given as a SMILES string. Values joined by “and” are separate entries in the source; they are usually repeats but may differ in a detail not shown here. Equal values may be shown once. Active and inactive are the calls of the source.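 The calls were made as follows: active = compounds giving half or more protection of infected cells from virus-caused growth loss, again on retest; inactive = the rest.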

As usually defined, the EC50 is the concentration needed to bring the measured effect to its halfway point. Usually IC50 stands for the point on the concentration scale where inhibition reaches its midpoint. High values mean a need for much substance, low ones inhibition by little substance. With `CC[N+](C)(CC)CCSC1=Nc2ccccc2N=C(c2ccc(Sc3ccccc3)cc2)C1`, the EC50 was over 200 µM and the IC50 stood at 6.76 µM.
As to `C#CC1(O)CCC2C3CCC4=C(CCC(=O)C4)C3CCC21C` (centres undefined), the EC50 was 30.9 µM and the IC50 came to 166 µM.
As for `COc1ccc2c(c1)c1c(n2CCN2CCCCC2)-c2cccc(OC)c2CC1`, the EC50 was over 200 µM and the IC50 was determined as 11.2 µM.
On the same counts, the results for `COC1N(C2CC(N=[N+]=[N-])C(CO)O2)C(=O)NC(=O)C1(C)Cl` (centres undefined) are 6.61 µM and 891 µM.
For `COC(=O)C1(O)c2ccccc2N=C2C1CCN2C` (centres undefined), the EC50 is over 27.5 µM and the half-maximal inhibitory concentration (IC50) is over 27.5 µM.
Regarding `N#CC(C#N)=C(N)/C(C#N)=C/c1cc(O)c(O)c(Br)c1`, the EC50 is over 77.6 µM and the IC50 was over 77.6 µM.
As for `O=C(NC(=O)c1c(Cl)nc2sccn12)Nc1ccc(Cl)cc1`, the EC50 is over 10 µM and the 50% inhibitory concentration (IC50) is over 10 µM.
For `CO[C@H]1/C=C/O[C@@]2(C)Oc3c(C)c(O)c4c(O)c(c(/C=N/N5CCCN(Cc6ccccc6)CC5)c(O)c4c3C2=O)NC(=O)/C(C)=C\C=C\[C@H](C)[C@H](O)C(C)[C@@H](O)C(C)[C@H](OC(C)=O)[C@@H]1C` (some centres undefined), the EC50 was over 200 µM and the half-maximal inhibitory concentration (IC50) turned out to be 8.32 µM.
On the same counts, the results for `O=C(Cc1csc2[n+]1C(=O)/C(=C/c1ccc(Cl)cc1)S2)Nc1ccccc1` are over 200 µM and 30.2 µM.
Consider `CCn1c(=O)c2ncnnc2n(CC)c1=O`, for which the EC50 was over 200 µM and the IC50 was over 200 µM.
With `CC(C)=CCN1CC(C)Cn2c(=S)[nH]c3cccc1c32` (centres undefined), the concentration for a half-maximal effect (EC50) is 1.17 µM and the IC50 is over 100 µM.
Turning to `O=C(Cc1nc2c3c(ccc2[nH]c1=O)C(=O)c1ccccc1C3=O)C(=O)Nc1ccccc1[N+](=O)[O-]`, the EC50 is over 38.9 µM and the half-maximal inhibitory concentration (IC50) amounted to 10 µM.
For `O=C(O)/C=C/C(=O)NCCCCCCNC(=O)/C=C/C(=O)O`, the outcome was inactive.
Consider `N#CCCN(C(=O)Nc1cccc(C(F)(F)F)c1)C1CCCCC1`, for which the EC50 was over 200 µM and the half-maximal inhibitory concentration (IC50) is over 200 µM.
Regarding `CCOC(=O)/C(C#N)=C/c1ccccc1[N+](=O)[O-]`, the EC50 was over 275 µM and the half-inhibitory concentration (IC50) stood at 46.8 µM.
Turning to `CN1C(c2ccccc2)CS(=O)(=O)CS1(=O)=O` (centres undefined), the result was inactive.
In the case of `O=C1OC(Cl)(C(Cl)(Cl)Cl)C(=O)OC1(Cl)C(Cl)(Cl)Cl` (centres undefined), the EC50 was over 200 µM and the IC50 is over 200 µM.
With `COC1OC2COC1(OCc1ccccc1)C1OC(C)(C)OC21` (centres undefined), the EC50 is over 200 µM and the IC50 is over 200 µM.
Regarding `CC(C)(C)[Si](OC[C@H]1OC(=O)[C@@H]2CN(Cc3ccccc3)C[C@H]12)(c1ccccc1)c1ccccc1`, the EC50 is over 7.76 µM and the IC50 was over 7.76 µM.
Consider `CN1C(=O)C=C(C=Nc2ccc(-c3ccccc3)cc2)C2CCCCC21` (centres undefined), for which the EC50 is over 200 µM and the 50% inhibitory concentration (IC50) stood at 2.29 µM.
`CC(=O)CC(N)=O`: the result was inactive.
With `Cc1c2ccc(Cl)cc2nc2ccc(OCCNC(=O)[C@@H](N)CCCN=C(N)N)cc12`, the EC50 is over 200 µM and the IC50 stood at 30.9 µM.
For `COc1cc2ccc(/C(C)=N/OC(C)=O)cc2cc1OC`, the result was inactive.
`OC[C@H]1CC(c2nn[nH]n2)[C@H](O)[C@@H]1O` (some centres undefined): the EC50 was over 200 µM and the half-inhibitory concentration (IC50) is over 200 µM.
Regarding `COC1=CC(=O)O[C@]2(C)OCC(C)C(O)=C12` (some centres undefined), the EC50 is over 1100 µM and the IC50 was over 1100 µM.
On to `Cc1ccc(N=Nc2c(S(=O)(=O)O)cc3cc(NC(=O)Nc4ccc5c(O)c(N=Nc6ccc7cc(S(=O)(=O)O)ccc7c6)c(S(=O)(=O)O)cc5c4)ccc3c2O)cc1`, for which the outcome was active.
As for `CN(C)CCCc1cccc2[nH]c3c(c12)CN(C)CC3`, the EC50 was over 200 µM and the IC50 was found to be 126 µM.
As for `O=C1CC(CC(O)C(O)CO)CC(=O)N1` (centres undefined), the EC50 is over 200 µM and the IC50 is over 200 µM.
As to `CCOC(=O)CP(=S)(S)c1ccccc1` (centres undefined), the EC50 was over 5500 µM and the IC50 was over 5500 µM.
As for `COc1ccccc1NC(=O)C1=C(C)NC(C)=C(C(=O)Nc2ccccc2OC)C1c1ccccc1OC`, the EC50 is over 19.5 µM and the IC50 is over 19.5 µM.
For the compound `OCc1ccc2ccc3ccc(CO)nc3c2n1`, the EC50 was over 389 µM and the half-maximal inhibitory concentration (IC50) amounted to 263 µM.
For `Cn1c2ccccc2c2nnc(-n3nc(-c4ccc(Br)cc4)cc3N)nc21`, in that order: over 200 µM and over 200 µM.
Consider `Cc1ccc(S(=O)(=O)N2CCCSCC2)cc1`, for which the EC50 is over 182 µM and the IC50 is over 182 µM.
Consider `CCn1c(=O)c2nc(SC)sc2n(-c2ccc(C)cc2)c1=O`, for which the outcome was inactive.
On the same count and under the same terms, the result for `O=C1CCC[C@]2(CCCC(=O)N2)C1` reads “inactive”.
In the case of `CCc1n[nH]c(CC)c1CCCCCCOc1ccc(OC)cc1Cl`, the EC50 is over 200 µM; the half-inhibitory concentration (IC50) is 9.77 µM and 10 µM.
For the compound `Cc1cc(S(=O)(=O)Nc2nnc3ccc4ccccc4n23)c(S)cc1Cl`, the EC50 was over 200 µM and the IC50 worked out at 30.9 µM.
With `COc1cc(CNC(=S)CCCCCCCCCCC(C)C)ccc1O`, the outcome was inactive.
`CCOP(=O)(OCC)/C(F)=C/c1ccc(F)cc1`: the result was inactive.
`O=C(O)CSCc1cc2c(O)c(c1)Cc1cc(CSCC(=O)O)cc(c1O)Cc1cc(CSCC(=O)O)cc(c1O)Cc1cc(CSCC(=O)O)cc(c1O)C2`: the EC50 is over 22.4 µM and the IC50 is over 22.4 µM.
In the case of `CC(C)CC(=O)N1CCN(C(=O)CC(C)C)c2ccccc21`, the EC50 was over 603 µM and the IC50 came out at 589 µM.
With `Cc1ccc(Nc2nc(NS(=O)(=O)c3cc(C)c(Cl)cc3S)n(C)n2)cc1`, the EC50 was over 200 µM and the IC50 was determined as 105 µM.
For `S=C1SCN2CCN3CSC(=S)N(CCN1C2)C3`, in that order: over 81.3 µM and over 81.3 µM.
For `COc1cccc2c1C(=O)c1c(O)c3c(c(O)c1C2=O)CC1(O)CC3OC1(C)OC` (centres undefined), in that order: over 4.57 µM and over 4.57 µM.
Consider `O=C1C2(Cl)C3(Cl)C4(OCCO4)C4(Cl)C2(Cl)C2(Cl)C1(Cl)C3(Cl)C42Cl` (centres undefined), for which the EC50 was over 200 µM and the IC50 is 28.8 µM.
As for `COC(=O)C1=CCC[C@H]2C1(C)CCC(C)C21CC(c2ccoc2)OC1=O` (some centres undefined), the EC50 was over 100 µM and the half-maximal inhibitory concentration (IC50) amounted to 51.3 µM.
For `COC1/C=C/OC2(C)Oc3c(C)c(O)c4c(O)c(cc(OCC(=O)N5C(C)CCC5C)c4c3C2=O)NC(=O)/C(C)=C/C=C/C(C)C(O)C(C)C(O)C(C)C(OC(C)=O)C1C` (centres undefined), in that order: over 200 µM and 43.7 µM.
Turning to `CCOC(=O)c1c(SC(=O)c2ccc(C(C)(C)C)cc2)n(-c2ccccc2)c(=S)n(-c2ccccc2)c1=O`, the EC50 was over 200 µM and the concentration for half-maximal inhibition (IC50) amounted to 27.5 µM.
Turning to `C[N+](C)(C)C=Nc1cccc2c1CCCC2`, the EC50 is over 200 µM.
Take `Oc1ccc2c(c1)OCC1c3cc4c(cc3OC21)OCO4` (centres undefined): the result was inactive.
On to `Cc1coc2c1C(=O)C(=O)c1c-2ccc2c1CCCC2(C)C`, for which the EC50 is over 200 µM and the IC50 stood at 25.7 µM.
With `CCc1ccccc1NC(=O)C1=C(C)NC(C)=C(C(=O)Nc2ccccc2CC)C1c1ccc(NC(C)=O)cc1`, the EC50 was over 34.7 µM and the concentration for half-maximal inhibition (IC50) was over 34.7 µM.
Regarding `Cc1cccc2c(N)c3cccc(C(=O)NCC[N+](C)(C)Cc4ccc([N+](=O)[O-])s4)c3nc12`, the EC50 was over 2 µM and the half-inhibitory concentration (IC50) is 0.251 µM.
With `CN1CCCC(=O)C1CC[C@H]1C(=O)CCCN1C` (some centres undefined), the EC50 is over 269 µM and the concentration for half-maximal inhibition (IC50) was over 269 µM.
As for `Cc1nnc(N2C(=O)C(=Cc3ccc(Cl)cc3)N=C2c2ccc(Cl)cc2)nc1/C=C\c1ccc(N(C)C)cc1`, the EC50 was 47.9 µM and the IC50 came out at 110 µM.
On to `CC1(C)C[C@H](O)[C@H](O)[C@]23C(=O)O[C@H](O)[C@H]2C(C=O)=CC[C@@H]13`, for which the EC50 was over 200 µM and the IC50 is over 200 µM.
As for `CCOC(=O)C1C(=O)CC(O)(c2ccccc2)C(C(=O)OCC)C1c1ccc(N(C)C)cc1` (centres undefined), the EC50 is over 200 µM and the IC50 amounted to 4.07 µM.
Turning to `Cc1c(C)c2c(c(N)c1C#N)C(=O)N(Cc1ccc(S(N)(=O)=O)cc1)C2=O`, the 50% effective concentration (EC50) was 69.2 µM and the half-maximal inhibitory concentration (IC50) was over 200 µM.
For `CCOC(=O)C1(C/C=C\CBr)CCCC1=O` (centres undefined), in that order: over 200 µM and 33.9 µM.
`O=C1c2ccccc2C2(Br)C(=O)c3ccccc3C12` (centres undefined): the result was inactive.
Same read-out and setting: with `CSCCC(C(=O)O)N(CC1(O)OCC(O)C(O)C1O)N=O` (centres undefined) the entry was “inactive”.
Regarding `O=C1c2cccnc2S(=O)(=O)N1c1ccc(Br)cc1`, the EC50 is over 200 µM and the IC50 came out at 74.1 µM.
`COc1cc(N(CCC#N)CCC#N)ccc1/C(N=Nc1ccc([N+](=O)[O-])cc1)=N/NC(=O)c1cc(Br)ccc1O`: the EC50 is over 200 µM and the IC50 came out at 33.1 µM.
As to `COC(=O)CSc1n[nH]c(-c2ccc(O)c([N+](=O)[O-])c2)n1`, the EC50 was over 115 µM and the IC50 is over 115 µM.
`Cc1cn(CC2=NCC(C)N2)c(=O)[nH]c1=O` (centres undefined): the EC50 is over 200 µM and the concentration for half-maximal inhibition (IC50) was over 200 µM.
With `Cc1cc(O)c2c(c1)C([C@]13Cc4cc(O)c5c(c4[C@H]1C=C[C@@H](O)C3O)C(=O)c1c(O)ccc(O)c1C5=O)OC2=O` (some centres undefined), the EC50 was over 6.61 µM and the concentration for half-maximal inhibition (IC50) was over 6.61 µM.
As for `O=C(/C=C/c1ccccc1)/C=N/N1C(=S)N(c2ccccc2)C(=Nc2ccccc2)C1=Nc1ccccc1`, the EC50 is over 200 µM and the IC50 is over 200 µM.
Turning to `O=C1C(O)=C(c2ccccc2)C(=O)C(O)=C1c1ccccc1`, the EC50 was over 85.1 µM and the IC50 was 43.7 µM.
As for `CCOc1cc(/C=C2\N=C(c3ccccc3)OC2=O)ccc1O`, the EC50 was over 23.4 µM and the concentration for half-maximal inhibition (IC50) is over 23.4 µM.
With `COc1cc2c(cc1OC)C1CCc3ccccc3CN1CC2` (centres undefined), the EC50 was over 200 µM and the IC50 came out at 170 µM.
For `O=C(Nc1ccc([N+](=O)[O-])cc1)OCC(COc1ccccc1)OC(=O)Nc1ccc([N+](=O)[O-])cc1` (centres undefined), in that order: over 200 µM and 7.76 µM.
